Measurements from US4609664A, “Antiasthmatic piperidylidene derivatives” (Sandoz Ltd., priority 1980, dated 1986).
Where two headings read alike, the source gives them in different places.

Test system: cutaneous anaphylactic reaction
Experiment: passive cutaneous anaphylaxis (PCA) test in the rat
Format: in vivo
Settings: dose decreasing diameter of blue area by 50% vs solvent controls, female rats
Experimental: This activity is indicated in the passive cutaneous anaphylaxis (PCA) test in the rat.
The method employed in this test is based on those described by Mota, Immunology 7, 681 (1964) and Stofland and Share, J. Physiol. Pharmacol. 52, 1114 (1974). Female rats (180-200 g) are sensitized by subcutaneous administration of 1 mg of ovalbumin and 200 mg aluminium hydroxide, dissolved in 1 ml of physiological saline solution and intraperitoneal administration of 0.5 ml of Haemophilus pertussis vaccine (SchweizerischesSerum- und Impfinstitut, Bern, Switzerland; 4×10^10 organism/ml). Fourteen day later, the animals are decapited, the blood centrifuged and the serum (anti-ovalbumin serum) collected and deep frozen.
The diluted anti-ovalbumin serum is injected intradermally (0.1 ml per injection site) at […] on the backs of untreated, female rats. Twenty-four hours after the passive sensitisation, the rats receive either solvent or the test compound i.v. in a tail-vein or per os. Immediately afterwards or, in the case of p.o. administration, 60 minutes later, the animals receive an intravenous injection of 1 ml of antigen. The antigen (5 mg/ml) is dissolved in a 0.25% solution of Evans blue dye in physiological saline. In the controls this injection elicits a cutaneous anaphylactic reaction, the intensity of which is proportional to the distance to which the dye diffuses into the tissue surrounding the four sensitisation sites. Thirty minutes later, the rats are killed in CO2 and the diameter in mm of the blue spot at each injection site measured. The drug dose decreasing the diameter of the blue area by 50% compared with solvent pretreated control rats (ED50), is obtained from the regression line. The dose-effect correlation is tested for statistical significance.
In the above test, compounds of the formula I are found to be active on administration at dosages of from about 0.1 to about 3.2 mg/kg p.o. and from about 0.056 to about 1.00 mg/kg i.v. ED50 values for the representative compounds 4-{1-[2-[2-(2-hydroxy-ethoxy)ethoxy]ethyl]piperidin-4-yliden}-4H-benzo[4,5]cyclohepta[1,2-b]thiophen-10(9H)-one. HBr (Compound A) and 2-{2-[2-[4-(5H-dibenzo[a,d]cyclohept-5-yliden)piperidin-1-yl]ethoxy]ethoxy}ethanol hydrogenofumarate (Compound B) as well as for the reference compound 5,5'-[(2-hydroxy-1,3-propanediyl)bis-(oxy)]bis[4-oxo-4H-1-benzopyran-2-carboxylic acid]

[1] = iv, i.v. in a tail-vein, immediately before antigen, read-out: ED50 (i.v.)
[2] = po, 60 minutes before antigen, read-out: ED50 (p.o)

Structure (SMILES) | ED50 [1] | ED50 [2]
O=C1Cc2ccccc2C(=C2CCN(CCOCCOCCO)CC2)c2ccsc21 [Compound A, 4-{1-[2-[2-(2-hydroxy-ethoxy)ethoxy]ethyl]piperidin-4-yliden}-4H-benzo[4,5]cyclohepta[1,2-b]thiophen-10(9H)-one. HBr] | ~0.21 mg/kg | ~1.8 mg/kg
OCCOCCOCCN1CCC(=C2c3ccccc3C=Cc3ccccc32)CC1 [Compound B, 2-{2-[2-[4-(5H-dibenzo[a,d]cyclohept-5-yliden)piperidin-1-yl]ethoxy]ethoxy}ethanol hydrogenofumarate] | ~0.22 mg/kg | ~0.49 mg/kg
O=C(O)c1cc(=O)c2c(OCC(O)COc3cccc4oc(C(=O)O)cc(=O)c34)cccc2o1 [Compound C, 5,5'-[(2-hydroxy-1,3-propanediyl)bis-(oxy)]bis[4-oxo-4H-1-benzopyran-2-carboxylic acid], reference compound] | ~2.6 mg/kg | 
